Assay results taken from paper PMC7265341, “Quantifying CDK inhibitor selectivity in live cells” (Nature Communications, 2020).
Like-named read-outs stand apart in the source and are kept apart here.

Assays:
CDK13/Cyclin K = CDK13/Cyclin K (Homo sapiens, UniProt Q14004); assay: NanoBRET live-cell target engagement, CDK13-NanoLuc/Cyclin K in HEK-293; type: binding
CDK12/Cyclin K = CDK12/Cyclin K (Homo sapiens, UniProt Q9NYV4); assay: NanoBRET live-cell target engagement, CDK12-NanoLuc/Cyclin K in HEK-293; type: binding; settings: for IC50: read-out: CDK12/K IC50
Chain of CDK12/Cyclin K (Q9NYV4 1-1481 isoform Q9NYV4-2): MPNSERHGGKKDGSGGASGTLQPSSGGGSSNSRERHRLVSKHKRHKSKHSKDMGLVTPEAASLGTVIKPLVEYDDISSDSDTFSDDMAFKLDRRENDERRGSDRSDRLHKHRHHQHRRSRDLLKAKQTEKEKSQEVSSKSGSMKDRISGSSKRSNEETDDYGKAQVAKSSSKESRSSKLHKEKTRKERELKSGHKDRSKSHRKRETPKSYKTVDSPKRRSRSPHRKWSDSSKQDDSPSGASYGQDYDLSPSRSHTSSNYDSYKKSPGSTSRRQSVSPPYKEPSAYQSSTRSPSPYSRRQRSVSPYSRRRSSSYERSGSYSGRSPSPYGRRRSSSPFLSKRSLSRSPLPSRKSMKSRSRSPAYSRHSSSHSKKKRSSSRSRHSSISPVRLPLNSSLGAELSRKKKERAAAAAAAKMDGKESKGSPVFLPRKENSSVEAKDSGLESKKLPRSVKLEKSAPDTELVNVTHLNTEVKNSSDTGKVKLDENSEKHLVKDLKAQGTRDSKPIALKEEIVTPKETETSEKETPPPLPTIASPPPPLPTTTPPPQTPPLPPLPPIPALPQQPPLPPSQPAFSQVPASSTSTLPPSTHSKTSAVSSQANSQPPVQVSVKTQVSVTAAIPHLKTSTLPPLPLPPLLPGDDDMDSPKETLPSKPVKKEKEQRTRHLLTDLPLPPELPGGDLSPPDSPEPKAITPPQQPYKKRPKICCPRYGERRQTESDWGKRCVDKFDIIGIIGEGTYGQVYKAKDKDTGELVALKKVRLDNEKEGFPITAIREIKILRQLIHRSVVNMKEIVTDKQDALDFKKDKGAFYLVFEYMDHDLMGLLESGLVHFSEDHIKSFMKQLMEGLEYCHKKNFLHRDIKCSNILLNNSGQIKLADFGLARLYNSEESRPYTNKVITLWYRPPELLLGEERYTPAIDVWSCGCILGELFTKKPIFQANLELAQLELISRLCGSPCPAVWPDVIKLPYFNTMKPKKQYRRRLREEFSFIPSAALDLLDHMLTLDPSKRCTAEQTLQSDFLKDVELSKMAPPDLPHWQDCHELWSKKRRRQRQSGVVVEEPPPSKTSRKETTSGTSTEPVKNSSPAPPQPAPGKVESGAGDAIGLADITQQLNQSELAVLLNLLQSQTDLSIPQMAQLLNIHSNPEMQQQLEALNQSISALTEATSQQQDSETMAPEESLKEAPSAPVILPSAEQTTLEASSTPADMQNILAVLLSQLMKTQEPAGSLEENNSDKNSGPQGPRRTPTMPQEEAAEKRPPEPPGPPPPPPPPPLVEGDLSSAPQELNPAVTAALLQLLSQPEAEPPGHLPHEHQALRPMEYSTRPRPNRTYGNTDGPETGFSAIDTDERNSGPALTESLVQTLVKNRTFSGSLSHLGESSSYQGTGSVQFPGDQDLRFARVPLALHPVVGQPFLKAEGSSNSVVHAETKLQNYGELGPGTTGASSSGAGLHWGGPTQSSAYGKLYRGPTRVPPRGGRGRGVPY
Chain of CDK12/Cyclin K (O75909 whole entry partner): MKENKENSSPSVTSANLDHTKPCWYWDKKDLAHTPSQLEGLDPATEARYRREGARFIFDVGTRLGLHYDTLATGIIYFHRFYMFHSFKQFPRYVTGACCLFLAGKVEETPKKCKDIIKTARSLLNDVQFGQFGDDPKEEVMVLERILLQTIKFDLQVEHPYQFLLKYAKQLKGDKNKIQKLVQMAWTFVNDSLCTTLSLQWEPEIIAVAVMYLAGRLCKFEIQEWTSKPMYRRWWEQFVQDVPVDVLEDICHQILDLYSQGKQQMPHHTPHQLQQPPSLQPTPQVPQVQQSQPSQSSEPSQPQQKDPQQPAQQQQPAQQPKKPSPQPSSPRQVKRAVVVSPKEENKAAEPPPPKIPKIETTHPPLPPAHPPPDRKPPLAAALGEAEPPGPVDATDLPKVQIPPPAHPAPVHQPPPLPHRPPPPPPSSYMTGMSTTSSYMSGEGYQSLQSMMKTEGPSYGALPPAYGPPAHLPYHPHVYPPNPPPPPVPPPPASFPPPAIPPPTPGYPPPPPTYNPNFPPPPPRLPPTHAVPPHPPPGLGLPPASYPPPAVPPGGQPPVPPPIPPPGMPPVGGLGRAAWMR

[1] = CDK13/K, average, read-out: Inhibition at 10µM (%)
[2] = CDK13/K, experiment 1, read-out: Inhibition at 10µM (%)
[3] = CDK13/K, experiment 2, read-out: Inhibition at 10µM (%)
[4] = CDK12/K, average, read-out: Inhibition at 10µM (%)
[5] = CDK12/K, experiment 1, read-out: Inhibition at 10µM (%)
[6] = CDK12/K, experiment 2, read-out: Inhibition at 10µM (%)
[7] = 10µM, average of experiments, read-out: CDK13/K Inhibition at 10µM (%)
[8] = 10µM, independent experiment 1, read-out: CDK13/K Inhibition at 10µM (%)
[9] = 10µM, independent experiment 2, read-out: CDK13/K Inhibition at 10µM (%)
[10] = 10µM, average of experiments, read-out: CDK12/K Inhibition at 10µM (%)
[11] = 10µM, independent experiment 1, read-out: CDK12/K Inhibition at 10µM (%)
[12] = 10µM, independent experiment 2, read-out: CDK12/K Inhibition at 10µM (%)

Chain of CDK13/Cyclin K (O75909 whole entry): as the sequence (O75909 whole entry partner) above
Chain of CDK13/Cyclin K (Q14004 other isoform, or with tags, fused parts or gaps): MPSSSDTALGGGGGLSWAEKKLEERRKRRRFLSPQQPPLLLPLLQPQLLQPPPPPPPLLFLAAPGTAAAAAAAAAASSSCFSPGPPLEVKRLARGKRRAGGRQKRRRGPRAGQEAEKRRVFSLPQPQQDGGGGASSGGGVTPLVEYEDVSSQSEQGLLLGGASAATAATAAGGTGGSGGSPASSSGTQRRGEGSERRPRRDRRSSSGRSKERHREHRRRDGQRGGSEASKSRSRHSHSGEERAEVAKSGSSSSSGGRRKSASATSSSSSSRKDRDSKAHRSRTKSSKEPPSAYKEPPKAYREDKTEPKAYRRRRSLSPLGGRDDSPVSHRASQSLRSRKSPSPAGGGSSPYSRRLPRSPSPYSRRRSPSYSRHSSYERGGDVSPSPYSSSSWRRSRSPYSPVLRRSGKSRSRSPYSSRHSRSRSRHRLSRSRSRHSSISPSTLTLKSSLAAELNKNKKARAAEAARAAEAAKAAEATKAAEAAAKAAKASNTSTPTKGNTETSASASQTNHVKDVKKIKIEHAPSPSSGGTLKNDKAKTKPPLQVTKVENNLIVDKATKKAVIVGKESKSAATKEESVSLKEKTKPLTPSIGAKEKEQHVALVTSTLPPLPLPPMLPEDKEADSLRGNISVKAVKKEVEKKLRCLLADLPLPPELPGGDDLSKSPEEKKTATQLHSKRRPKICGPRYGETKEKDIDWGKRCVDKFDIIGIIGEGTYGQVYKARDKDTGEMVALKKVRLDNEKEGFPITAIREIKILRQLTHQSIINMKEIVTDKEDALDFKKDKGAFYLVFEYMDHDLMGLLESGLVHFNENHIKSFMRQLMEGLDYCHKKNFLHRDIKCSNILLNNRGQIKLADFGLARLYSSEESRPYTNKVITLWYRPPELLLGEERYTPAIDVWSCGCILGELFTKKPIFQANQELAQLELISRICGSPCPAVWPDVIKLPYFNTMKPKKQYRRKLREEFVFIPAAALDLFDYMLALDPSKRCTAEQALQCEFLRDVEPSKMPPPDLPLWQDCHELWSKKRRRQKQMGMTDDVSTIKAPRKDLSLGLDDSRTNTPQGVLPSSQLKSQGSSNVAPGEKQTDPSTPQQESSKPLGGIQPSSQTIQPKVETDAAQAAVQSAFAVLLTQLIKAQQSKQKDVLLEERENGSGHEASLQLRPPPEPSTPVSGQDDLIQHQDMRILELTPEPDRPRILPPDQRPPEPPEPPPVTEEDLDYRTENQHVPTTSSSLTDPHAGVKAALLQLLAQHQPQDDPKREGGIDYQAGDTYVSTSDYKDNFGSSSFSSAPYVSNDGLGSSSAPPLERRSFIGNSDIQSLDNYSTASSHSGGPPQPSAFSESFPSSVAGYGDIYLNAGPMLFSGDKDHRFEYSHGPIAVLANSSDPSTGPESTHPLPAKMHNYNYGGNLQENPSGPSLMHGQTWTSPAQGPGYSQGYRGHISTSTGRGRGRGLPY

## CC(C)c1c2cc(-c3ccnc(N[C@H]4CC[C@H](NC5CCOCC5)CC4)n3)ccc2nn1C [LY2857785]
CDK13/Cyclin K; CDK13/K, average
  Inhibition at 10µM (%): 26.3%
CDK13/Cyclin K; CDK13/K, experiment 1
  Inhibition at 10µM (%): 28.2%
CDK13/Cyclin K; CDK13/K, experiment 2
  Inhibition at 10µM (%): 24.3%
CDK12/Cyclin K; CDK12/K, average
  Inhibition at 10µM (%): 43.6%
CDK12/Cyclin K; CDK12/K, experiment 1
  Inhibition at 10µM (%): 48.1%
CDK12/Cyclin K; CDK12/K, experiment 2
  Inhibition at 10µM (%): 39.1%

## CC(C)N1CCN(c2ccc(Nc3ncc4cc5n(c4n3)C3(CCCCC3)CNC5=O)nc2)CC1 [Lerociclib]
CDK13/Cyclin K; [1]
  inhibition at 10 µM: -0.247%
CDK13/Cyclin K; [2]
  inhibition at 10 µM: 4.2%
CDK13/Cyclin K; [3]
  inhibition at 10 µM: -4.7%
CDK12/Cyclin K; [4]
  inhibition at 10 µM: 8.7%
CDK12/Cyclin K; [5]
  inhibition at 10 µM: -0.9%
CDK12/Cyclin K; [6]
  inhibition at 10 µM: 18.4%

## CNC(=O)c1nn(C)c2c1C(C)(C)Cc1cnc(Nc3ccc(N4CCN(C)CC4)cc3)nc1-2 [Milciclib]
CDK13/Cyclin K; [1]
  inhibition at 10 µM: 13.7%
CDK13/Cyclin K; [2]
  inhibition at 10 µM: 15%
CDK13/Cyclin K; [3]
  inhibition at 10 µM: 12.5%
CDK12/Cyclin K; [5]
  inhibition at 10 µM: 16.8%
CDK12/Cyclin K; [6]
  inhibition at 10 µM: 10.6%
CDK12/Cyclin K; read-out: Inhibition at 10µM (%), CDK12/K, average
  inhibition at 10 µM: 13.7%

## N#CCNC(=O)c1ccc(-c2ccnc(Nc3ccc(N4CCOCC4)cc3)n2)cc1 [Momelotinib]
CDK13/Cyclin K; [1]
  inhibition at 10 µM: 3.2%
CDK13/Cyclin K; [2]
  inhibition at 10 µM: 4.9%
CDK13/Cyclin K; [3]
  inhibition at 10 µM: 1.4%
CDK12/Cyclin K; [4]
  inhibition at 10 µM: -8.8%
CDK12/Cyclin K; [5]
  inhibition at 10 µM: 5.9%
CDK12/Cyclin K; [6]
  inhibition at 10 µM: -23.5%

## CS(=O)(=O)N1CCC(NC(=O)c2[nH]ncc2NC(=O)c2c(Cl)cccc2Cl)CC1 [NVP-LCQ195]
CDK13/Cyclin K; CDK13/K, average
  Inhibition at 10µM (%): 20.5%
CDK13/Cyclin K; CDK13/K, experiment 1
  Inhibition at 10µM (%): 29.4%
CDK13/Cyclin K; CDK13/K, experiment 2
  Inhibition at 10µM (%): 11.5%
CDK12/Cyclin K; CDK12/K, average
  Inhibition at 10µM (%): 24.3%
CDK12/Cyclin K; CDK12/K, experiment 1
  Inhibition at 10µM (%): 26.4%
CDK12/Cyclin K; CDK12/K, experiment 2
  Inhibition at 10µM (%): 22.1%

## CN1CCN(c2ccc(Nc3ncc4cc(C#N)c(=O)n(C5CCCC5)c4n3)cc2)CC1 [ON123300]
CDK13/Cyclin K; [1]
  inhibition at 10 µM: -15.1%
CDK13/Cyclin K; [2]
  inhibition at 10 µM: -1%
CDK13/Cyclin K; [3]
  inhibition at 10 µM: -29.2%
CDK12/Cyclin K; [4]
  inhibition at 10 µM: -3.9%
CDK12/Cyclin K; [5]
  inhibition at 10 µM: -2.7%
CDK12/Cyclin K; [6]
  inhibition at 10 µM: -5%

## CN1CCC(c2c(O)cc(O)c3c(=O)cc(-c4ccccc4Cl)oc23)C1CO (centres unmarked) [P276-00]
CDK13/Cyclin K; CDK13/K, average
  Inhibition at 10µM (%): 11.2%
CDK13/Cyclin K; CDK13/K, experiment 1
  Inhibition at 10µM (%): 12.5%
CDK13/Cyclin K; CDK13/K, experiment 2
  Inhibition at 10µM (%): 9.8%
CDK12/Cyclin K; CDK12/K, average
  Inhibition at 10µM (%): 3.3%
CDK12/Cyclin K; CDK12/K, experiment 1
  Inhibition at 10µM (%): 2.5%
CDK12/Cyclin K; CDK12/K, experiment 2
  Inhibition at 10µM (%): 4.1%

## CC(C)CC(=O)Nc1[nH]nc2c1CN(C(=O)C1CCN(C)CC1)C2(C)C [PHA-793887]
CDK13/Cyclin K; [7]
  inhibition at 10 µM: 17.1%
CDK13/Cyclin K; [8]
  inhibition at 10 µM: 23.7%
CDK13/Cyclin K; [9]
  inhibition at 10 µM: 10.4%
CDK12/Cyclin K; [10]
  inhibition at 10 µM: 31.4%
CDK12/Cyclin K; [11]
  inhibition at 10 µM: 33%
CDK12/Cyclin K; [12]
  inhibition at 10 µM: 29.9%

## CC(C)[C@H](CO)Nc1nc(Nc2ccc(C(=O)O)c(Cl)c2)c2ncn(C(C)C)c2n1 [Purvalanol B]
CDK13/Cyclin K; [7]
  inhibition at 10 µM: 2.3%
CDK13/Cyclin K; [8]
  inhibition at 10 µM: 3%
CDK13/Cyclin K; [9]
  inhibition at 10 µM: 1.7%
CDK12/Cyclin K; [10]
  inhibition at 10 µM: 1.7%
CDK12/Cyclin K; [11]
  inhibition at 10 µM: 4.5%
CDK12/Cyclin K; [12]
  inhibition at 10 µM: -1.1%

## CN1C/C=C/CCOc2cccc(c2)-c2ccnc(n2)Nc2cccc(c2)C1 [SB1317]
CDK13/Cyclin K; [7]
  inhibition at 10 µM: 63.7%
CDK13/Cyclin K; [8]
  inhibition at 10 µM: 47.7%
CDK13/Cyclin K; [9]
  inhibition at 10 µM: 79.6%
CDK12/Cyclin K; [10]
  inhibition at 10 µM: 60.9%
CDK12/Cyclin K; [11]
  inhibition at 10 µM: 45.8%
CDK12/Cyclin K; [12]
  inhibition at 10 µM: 76%
CDK12/Cyclin K; average (n=2)
  IC50: 0.68 µM
CDK12/Cyclin K; independent experiment 1
  IC50: 0.61 µM
CDK12/Cyclin K; independent experiment 2
  IC50: 0.75 µM

## CN(C)C/C=C/C(=O)Nc1ccc(C(=O)Nc2cccc(Nc3ncc(Cl)c(-c4c[nH]c5ccccc45)n3)c2)cc1 [THZ1]
CDK13/Cyclin K; 10µM, average of experiments
  CDK13/K Inhibition at 10µM (%): 48.1%
CDK13/Cyclin K; 10µM, independent experiment 1
  CDK13/K Inhibition at 10µM (%): 34.3%
CDK13/Cyclin K; 10µM, independent experiment 2
  CDK13/K Inhibition at 10µM (%): 62.0%
CDK13/Cyclin K; primary screen, live HEK-293
  CDK13 occupancy at 10 µM: ~50%
CDK12/Cyclin K; 10µM, average of experiments
  CDK12/K Inhibition at 10µM (%): 45.5%
CDK12/Cyclin K; 10µM, independent experiment 1
  CDK12/K Inhibition at 10µM (%): 26.4%
CDK12/Cyclin K; 10µM, independent experiment 2
  CDK12/K Inhibition at 10µM (%): 64.6%
CDK12/Cyclin K; primary screen, live HEK-293
  CDK12 occupancy at 10 µM: ~50%
